{"source": "the METLIN SMRT retention time set (Domingo-Almenara et al. 2019)", "data": [{"test": "gradient 5% acetonitrile 3 min, to 50% in 2 min, to 85% in 15 min, held 3 min, 100 µL/min", "conditions": "column: Zorbax Extend-C18 2.1 x 50 mm; eluents: water / acetonitrile, 0.1% formic acid", "procedure,_shortened": "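The system's dead and dwell volumes were 40 μL and 900 μL, with a Zorbax Extend-C18 column (2.1 × 50 mm, 1.8 μm) run at 100 μL/min in water and acetonitrile containing 0.1% formic acid each. Pure standards were analyzed in mixtures of ~100 molecules by HPLC–quadrupole time-of-flight mass spectrometry in positive and negative ionization mode. Retention time was assigned from computationally picked, manually inspected adduct peaks.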", "units": {"RP-LC retention time": "s"}, "values": [{"smiles": "CCc1nc2ccccc2c(C(=O)NC2CCCCC2)c1C", "RP-LC retention time": 650}, {"smiles": "O=C(NCC1CCCO1)C1CCCN(c2ncccc2-c2noc(C3CCC3)n2)C1", "note": "(stereo unspecified)", "RP-LC retention time": 770}, {"smiles": "CCN1C(=O)Cc2ccccc2C1C(=O)NCCOC", "note": "(stereo unspecified)", "RP-LC retention time": 610}, {"smiles": "CNC(=O)C1CCN(Cc2cc3ccccc3n2Cc2ccc(Cl)cc2)CC1", "RP-LC retention time": 708}, {"smiles": "COc1ccc(NC(=O)CSc2cc(N3CCN(c4ccccc4OC)CC3)ncn2)c(OC)c1", "RP-LC retention time": 791}, {"smiles": "O=C(Cn1nc2n(c1=O)CCCC2)Nc1cccc(Br)c1", "RP-LC retention time": 686}, {"smiles": "Cc1ccc(C)c(NC(=O)Cn2c(C)cc(-c3nnc(C)o3)c2C)c1", "RP-LC retention time": 796}, {"smiles": "Cn1nccc1-c1nc(-c2ccc3oc(-c4ccccc4)nc3c2)no1", "RP-LC retention time": 1230}, {"smiles": "C=CCNC(=O)CCc1c(-c2ccc(Br)cc2)nc2ccccn12", "RP-LC retention time": 622}, {"smiles": "COc1cc(NC(=O)NC(C)C(=O)N2CCc3ccccc32)cc(OC)c1", "note": "(stereo unspecified)", "RP-LC retention time": 817}, {"smiles": "CCCCN1CCN(C(=O)c2ccc3c(c2)nc2n3CCN(C3CCCCC3)C2=O)CC1", "RP-LC retention time": 618}, {"smiles": "Cc1nn(C(C)C(=O)NCCCN2CCCC2=O)c(=O)c2nn(-c3ccccc3)c(C)c12", "note": "(stereo unspecified)", "RP-LC retention time": 648}, {"smiles": "O=c1cc(-c2ccncc2)nc(N2CCCC2)n1Cc1cccc(F)c1", "RP-LC retention time": 1230}, {"smiles": "CC(C)c1ccc(NC(=O)C2CCCN2S(=O)(=O)c2cc3c(cc2Cl)NC(=O)CO3)cc1", "note": "(stereo unspecified)", "RP-LC retention time": 948}, {"smiles": "Cc1ccc(-c2cn3ccn(-c4ccc(Cl)cc4)c(=O)c3n2)cc1", "RP-LC retention time": 905}, {"smiles": "Cc1cccn2c(NC(=O)c3ccc(Br)cc3)c(-c3ccccc3)nc12", "RP-LC retention time": 715}, {"smiles": "Cc1cc(-c2nnc(C3CC3)o2)c(C)n1CC(=O)NCc1cc(F)cc(F)c1", "RP-LC retention time": 813}, {"smiles": "COc1ccc(S(=O)(=O)N2CCCC(c3nnnn3C)C2)cc1", "note": "(stereo unspecified)", "RP-LC retention time": 744}, {"smiles": "CCC1CN(C(=O)N2CCC(C(=O)NCCN3CCN(CC)CC3)CC2)c2cc(C)ccc2O1", "note": "(stereo unspecified)", "RP-LC retention time": 616}, {"smiles": "Cc1c2c(cc3c1[nH]c1ccccc13)C=NCC2", "RP-LC retention time": 630}, {"smiles": "CCOC(=O)c1[nH]c(C)c(C(=O)N2CCC(CC(=O)N3CCCCCC3)CC2)c1C", "RP-LC retention time": 739}, {"smiles": "O=C(C1CCN(Cc2cc3ccccc3n2Cc2ccccc2)CC1)N1CCCCC1", "RP-LC retention time": 757}, {"smiles": "Cc1c(Cl)cccc1Nc1c(-c2ccc(N3CCOCC3)cc2)nc2ncccn12", "RP-LC retention time": 758}, {"smiles": "CCOc1ccc(CC(=O)N2CCN(Cc3nc(C)cs3)CC2)cc1", "RP-LC retention time": 586}, {"smiles": "Cc1ccc(C)c(NC(=O)NCCn2c(-c3ccncc3)nc3cccnc32)c1", "RP-LC retention time": 638}, {"smiles": "OC[C@@H]1CN(Cc2ccco2)C[C@H]1c1nc(-c2cccnc2)no1", "RP-LC retention time": 557}, {"smiles": "CCOC(=O)C1CCN(c2cc3c(cc2NC(=O)NC(C)CC)n(C)c(=O)n3C)CC1", "note": "(stereo unspecified)", "RP-LC retention time": 778}, {"smiles": "O=C(c1ccc2c(c1)OCO2)N1CCCCC1", "RP-LC retention time": 722}, {"smiles": "Cc1ccc(C)c(NC(=O)Cn2nc(N(C)C)c3ccccc3c2=O)c1", "RP-LC retention time": 862}, {"smiles": "O=C(CSc1nccn1-c1ccc(C(=O)NCc2cccs2)cc1)NC1CCCC1", "RP-LC retention time": 644}, {"smiles": "Cc1ccc(C(=O)N(CCc2cscn2)Cc2cccnc2)cc1C", "RP-LC retention time": 636}, {"smiles": "O=C1COc2cccnc2N1", "RP-LC retention time": 648}, {"smiles": "CCn1c(=O)c2ccccc2n(Cc2nc(-c3ccc(Cl)cc3)no2)c1=O", "RP-LC retention time": 1090}, {"smiles": "Cc1ccc(-c2noc(Cn3ccnc3)n2)cc1", "RP-LC retention time": 624}, {"smiles": "CN1C(=O)C(c2c(-c3ccccc3)[nH]c3[nH]c(=O)[nH]c(=O)c23)c2ccccc21", "note": "(stereo unspecified)", "RP-LC retention time": 668}, {"smiles": "CC(C)CC(=O)Nc1cnc(-c2ccccc2)nc1", "RP-LC retention time": 906}, {"smiles": "Cc1sc(-c2cc(C(F)(F)F)on2)cc1S(=O)(=O)Nc1ccccc1F", "RP-LC retention time": 1110}, {"smiles": "O=C(Nc1cnc(-c2ccccc2)nc1)c1cccc(F)c1", "RP-LC retention time": 970}, {"smiles": "Cc1sc(NC(=O)c2ccco2)nc1-c1ccc2c(c1)NC(=O)C(C)O2", "note": "(stereo unspecified)", "RP-LC retention time": 814}, {"smiles": "CCOc1ccc(-c2noc(CN3C(=O)COc4cc(C)ccc43)n2)cc1", "RP-LC retention time": 1110}, {"smiles": "Cc1csc(-c2cc(S(=O)(=O)N3CCN(C)CC3)cn2CC(=O)N2CCCCC2)n1", "RP-LC retention time": 654}, {"smiles": "CC1CCN(CCCC(=O)c2ccc(F)cc2)CC1", "RP-LC retention time": 685}, {"smiles": "Cc1cccc(-c2nc(-c3ccc(S(=O)(=O)N4CCOCC4)cc3)no2)c1", "RP-LC retention time": 1080}, {"smiles": "Cc1cc(C(=O)NCc2ccccc2F)nc2cc(-c3cccs3)nn12", "RP-LC retention time": 1120}, {"smiles": "Cc1ccc(-c2csc(NC(=O)CSc3nc4c(cc3C#N)C(=O)CCC4)n2)cc1", "RP-LC retention time": 583}, {"smiles": "Cn1c(=O)c(N2CCN(C(=O)c3ccc(F)cc3F)CC2)nc2ccncc21", "RP-LC retention time": 586}, {"smiles": "CCN1C(=O)CCc2cc(NC(=O)CCc3ccccc3OC)ccc21", "RP-LC retention time": 787}, {"smiles": "COc1ccc(Cl)cc1NC(=O)C1CCCN(C(=O)c2cc(-c3ccccn3)n[nH]2)C1", "note": "(stereo unspecified)", "RP-LC retention time": 771}, {"smiles": "Cn1c(=O)c2c(ncn2CC(=O)Nc2nccs2)n(C)c1=O", "RP-LC retention time": 576}, {"smiles": "O=C(c1cn(-c2cc(N3CCCCC3)ncn2)cn1)N1CCC2(CC1)OCCO2", "RP-LC retention time": 750}, {"smiles": "CCSc1nnc(NC(=O)CSC2=NN3CCCC(=O)N=C3S2)s1", "RP-LC retention time": 683}, {"smiles": "Cc1cc(C)n(-c2ccc(SCc3ccccc3Cl)nn2)n1", "RP-LC retention time": 1150}, {"smiles": "Cc1nn(C)c(C)c1C(=O)N1CCC2(CCC2O)CC1", "note": "(stereo unspecified)", "RP-LC retention time": 600}, {"smiles": "Cc1cc(C)c(NC(=O)Cn2cnc(C)c(C)c2=O)c(C)c1", "RP-LC retention time": 674}, {"smiles": "O=S(=O)(c1cccc(-c2cn3cc(Cl)ccc3n2)c1)N1CCCCCC1", "RP-LC retention time": 944}, {"smiles": "N#CCc1ccc(NC(=O)C2CCCN(S(=O)(=O)Cc3ccc(Cl)cc3)C2)cc1", "note": "(stereo unspecified)", "RP-LC retention time": 905}, {"smiles": "CCC(=O)Nc1cc2c(cc1Sc1ccc(C)cc1)n(C)c(=O)n2C", "RP-LC retention time": 893}, {"smiles": "CCn1nccc1-c1csc(S(=O)(=O)NCc2cccs2)c1", "RP-LC retention time": 866}, {"smiles": "COCCNC(=O)C1CCN(S(=O)(=O)c2cc(-c3noc(C)n3)cs2)CC1", "RP-LC retention time": 679}, {"smiles": "CSc1ccc(CNC(=O)C2CCN(c3cncnc3N3CCCCC3)CC2)cc1", "RP-LC retention time": 734}, {"smiles": "O=C(O)c1ccc(-c2c[nH]c3ncc(-c4ccccc4)cc23)cc1C1CCCC1", "RP-LC retention time": 700}, {"smiles": "Cc1cc(S(=O)(=O)N2CCc3c(c(-c4nnc(-c5ccc(F)cc5)o4)nn3C)C2)ccc1F", "RP-LC retention time": 992}, {"smiles": "O=C(C1CCN(c2nc3ccc(-c4cccc(F)c4)nc3s2)CC1)N1CCOCC1", "RP-LC retention time": 892}, {"smiles": "Cc1nc2cc(-c3noc(-c4ccc(Br)cc4)n3)ccc2n(C)c1=O", "RP-LC retention time": 1180}, {"smiles": "Cc1nc2nc(-c3ccccc3)nn2c(C)c1CC(=O)N1CCC(C)CC1", "RP-LC retention time": 846}, {"smiles": "Cc1ccc2ncn(C3CCN(S(=O)(=O)c4ccc(CC(C)C)cc4)CC3)c(=O)c2c1", "RP-LC retention time": 1150}, {"smiles": "CCN1CCN(c2c(S(=O)(=O)c3ccc(C)c(C)c3)cnc3cc(OC)c(OC)cc23)CC1", "RP-LC retention time": 629}, {"smiles": "Cc1cc(NC(=O)CSc2nnc(-c3c(C)nc4sccn34)n2C)no1", "RP-LC retention time": 588}, {"smiles": "O=S(=O)(c1ccc(Cl)cc1)N1CCc2nc(-c3ccccc3)ncc2C1", "RP-LC retention time": 1080}, {"smiles": "O=S(=O)(c1ccc(-c2nnc(C3CC3)o2)o1)N1CCCCC1", "RP-LC retention time": 853}, {"smiles": "COC(=O)c1ccc(NC(=O)N2CC(N(C3CCOCC3)S(C)(=O)=O)C2)cc1", "RP-LC retention time": 686}, {"smiles": "COc1ccccc1NC(=O)Cc1csc2nc(-c3ccc(OC)c(OC)c3)cn12", "RP-LC retention time": 734}, {"smiles": "COc1cc2c(cc1OC)C(COc1ccc(F)cc1)N(C(=O)C(C)(C)C)CC2", "note": "(stereo unspecified)", "RP-LC retention time": 998}, {"smiles": "COc1ccc(CNC(=O)c2ccc3ncnc(N4CCCC4)c3c2)cc1", "RP-LC retention time": 624}, {"smiles": "CCCCCn1c(=O)c2ccccc2n(Cc2nc(-c3ccc(Cl)cc3)no2)c1=O", "RP-LC retention time": 1340}, {"smiles": "Cc1ccc(-c2nc3n(CC(=O)NCC4CCCO4)c4c(c(=O)n3n2)CCC4)cc1", "note": "(stereo unspecified)", "RP-LC retention time": 720}, {"smiles": "COc1ccc(S(=O)(=O)N2CCC(C(=O)N[C@@H](C)C(=O)O)CC2)cc1", "RP-LC retention time": 652}, {"smiles": "CC(C)NC(=O)C1CCc2sc(C(=O)N3CCCC3)cc2C1", "note": "(stereo unspecified)", "RP-LC retention time": 696}, {"smiles": "CCn1nccc1C(=O)NC1CCCCC1", "RP-LC retention time": 718}, {"smiles": "Cn1cc(S(=O)(=O)N2CCC(C(=O)NCc3cccnc3)CC2)cc1C(=O)N1CCCC1", "RP-LC retention time": 674}, {"smiles": "COc1ccc(N2CCN(C(=O)C3CCCN(C(=O)c4cc5sccc5n4C)C3)CC2)cc1", "note": "(stereo unspecified)", "RP-LC retention time": 821}, {"smiles": "Cc1noc([C@@H]2CN(Cc3cc(F)cc(F)c3)C[C@H]2CO)n1", "RP-LC retention time": 546}, {"smiles": "CN1C(=O)Cc2ccccc2C1C(=O)NCc1ccc(Cl)cc1", "note": "(stereo unspecified)", "RP-LC retention time": 762}, {"smiles": "CCc1ccc(NC(=O)N2CCC(N3CCN(Cc4ccc(F)cc4)C(=O)C3=O)CC2)cc1", "RP-LC retention time": 769}, {"smiles": "CC(C)OCCCNC(=O)CCc1c(-c2ccc(Br)cc2)nc2ccccn12", "RP-LC retention time": 652}, {"smiles": "CCCc1ccc(S(=O)(=O)N2CCc3c(c(-c4nnc(SCC)n4CC)nn3C)C2)cc1", "RP-LC retention time": 1090}, {"smiles": "O=C(c1ccc(OCC2CCN(C(=O)c3ccsc3)CC2)cc1)N1CCOCC1", "RP-LC retention time": 678}, {"smiles": "CCNC(=O)NC1CCN(c2ccccc2)C1=O", "note": "(stereo unspecified)", "RP-LC retention time": 596}, {"smiles": "COc1cc(-c2noc(Cn3cnc4c(oc5ccccc54)c3=O)n2)cc(OC)c1OC", "RP-LC retention time": 857}, {"smiles": "COc1ccc(CNC(=O)Cn2c(N)nc(C)cc2=O)cc1", "RP-LC retention time": 603}, {"smiles": "COc1ccc(-c2noc(Cc3nnc(-c4cc(F)cc(F)c4)o3)n2)cc1", "RP-LC retention time": 1040}]}]}
